# Test results published in US6787556B1, “Benzoic acid derivatives for the treatment of diabetes mellitus” (AstraZeneca AB, priority 1999, dated 2004).
# Key:
# Type in all cases: cell-based
# 3T3L1 preadipocytes = assay: Adipocyte differentiation assay (glycerophosphate dehydrogenase activity); conditions: concentration of 10 μM, 3T3L1 cells, day 7; positive control BRL 49653
# Protocol: Adipocyte Differentiation Assay
# 3T3L1 preadipocytes were grown in DMEM containing 10% NBCS and 1 day post-confluence cells were cultured in differentiation medium (DMEM containing 5% FCS, 1 μg/ml insulin, 0.25 μM dexamethasone and 0.5 mM IBMX) in the presence or absence of compounds. BRL 49653 was used as the positive control and the medium replenished after 3 days. On day 7, cells were lysed and glycerophosphate dehydrogenase activity measured spectrophotometrically at 340 nm.
# human PPARγ = molecular target: T1, human PPARγ (Homo sapiens, UniProt P37231); assay: Cell transactivation assay in transiently transfected Hepa1c1c7 cells, PPRE-Lac Z reporter; conditions: concentration of 10 μM
# T1 construct: expressed in transfected cells; host or cells: Hepa1c1c7 cells (transient transfection, Superfect)
# T1 sequence (P37231 1-505): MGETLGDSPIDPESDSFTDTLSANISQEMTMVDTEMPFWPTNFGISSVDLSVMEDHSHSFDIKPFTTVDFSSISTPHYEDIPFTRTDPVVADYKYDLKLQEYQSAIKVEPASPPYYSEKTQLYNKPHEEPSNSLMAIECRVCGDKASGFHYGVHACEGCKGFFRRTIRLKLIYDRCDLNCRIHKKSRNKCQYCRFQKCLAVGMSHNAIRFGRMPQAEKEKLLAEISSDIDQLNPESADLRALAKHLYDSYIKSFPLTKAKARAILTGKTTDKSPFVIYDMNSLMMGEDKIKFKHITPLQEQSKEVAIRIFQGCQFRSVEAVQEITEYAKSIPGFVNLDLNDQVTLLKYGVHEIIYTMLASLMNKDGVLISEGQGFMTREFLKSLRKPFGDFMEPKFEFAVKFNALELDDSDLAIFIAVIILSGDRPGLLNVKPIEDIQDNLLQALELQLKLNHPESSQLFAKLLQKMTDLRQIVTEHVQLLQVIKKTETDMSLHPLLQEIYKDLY
# Protocol: (§1) (B) Cell Transactivation Assays
# (§2) Assays were performed by transient transfection of Hepa1c1c7 cells in which compounds of the invention were tested for their ability to activate human PPARα, δ and γ isoforms. Cells were co-transfected with either PPARa, d and g expression vectors (containing the entire ORF sequence) and a reporter construct carrying a PPRE linked Lac Z construct. Cells were transfected using Superfect and cultured in T75 flasks overnight, then plated into 96 well plates and left for 5 hours before the addition of test compound. After a further 24 hours PPAR activation was quantitated indirectly as β-Galactosidase activity by hydrolysis of chlorophenol red-β-D-galactopyranoside (CPRG), measured spectrophotometrically at 580 nm. Compounds of the invention were active in this assay.
# (§3) According to their activity in transactivation assays and by comparison to the selective PPARγ agonist, BRL 49653; compounds of the invention were categorised as either having pharmacological properties consistent with: selective PPARγ agonists, partial agonists or non-selective PPAR α/γ agonists.
# human PPARα = molecular target: T2, human PPARα (Homo sapiens, UniProt Q07869); assay: as above; conditions: concentration of 10 μM
# T2 construct: expressed in transfected cells; host or cells: Hepa1c1c7 cells (transient transfection, Superfect)
# T2 sequence (Q07869 1-468): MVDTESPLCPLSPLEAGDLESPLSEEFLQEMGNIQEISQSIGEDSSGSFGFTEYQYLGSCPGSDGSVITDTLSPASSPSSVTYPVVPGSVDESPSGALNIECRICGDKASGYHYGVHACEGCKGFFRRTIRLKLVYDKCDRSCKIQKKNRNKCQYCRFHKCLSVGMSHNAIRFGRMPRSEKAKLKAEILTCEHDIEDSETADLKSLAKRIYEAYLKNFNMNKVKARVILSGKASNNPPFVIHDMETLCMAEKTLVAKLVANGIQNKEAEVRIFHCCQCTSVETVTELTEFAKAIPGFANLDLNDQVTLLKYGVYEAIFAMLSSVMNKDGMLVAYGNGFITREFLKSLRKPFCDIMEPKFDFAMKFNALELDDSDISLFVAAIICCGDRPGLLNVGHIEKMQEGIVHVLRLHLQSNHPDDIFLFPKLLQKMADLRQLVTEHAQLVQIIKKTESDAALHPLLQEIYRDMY
# Protocol: as §1, §2, §3
compound,measurement,setting,value
COc1cc(-c2nnn(Cc3ccccc3C(=O)O)n2)ccc1CN(C)C(=O)COc1ccc(Cl)cc1 [Compound 46],activity as compared to the control (glycerophosphate dehydrogenase activity),3T3L1 preadipocytes,79%
same,γ transactivation,human PPARγ,64%
same,α transactivation,human PPARα,25%
